{"source": "patent US6830897B2", "about": "“High throughput screen for reducing drug candidate attrition” (Pfizer Inc., priority 2000, dated 2004)", "origin": "cited, not measured here"}
{"settings": "toxicities linked to formation of reactive metabolites; literature reference in brackets"}
{"smiles": "COc1ccc(O)cc1", "note": "[4-hydroxyanisole]", "Toxicity (Ref.)": "Hepato- toxicity (15)"}
{"smiles": "CC(C)c1ccc(O)cc1", "note": "[4-isopropylphenol]", "Toxicity (Ref.)": "Circulatory collapse, death (16)"}
{"smiles": "CC(=O)Nc1ccc(O)cc1", "note": "[Acetaminophen]", "Toxicity (Ref.)": "Hepato- toxicity (11)"}
{"smiles": "NC(=O)N1c2ccccc2C=Cc2ccccc21", "note": "[Carbamazepine]", "Toxicity (Ref.)": "Hyper- sensitivity (13)"}
{"smiles": "CN1CCN(C2=Nc3cc(Cl)ccc3Nc3ccccc32)CC1", "note": "[Clozapine]", "Toxicity (Ref.)": "Neutrophil Cyto-toxicity (12)"}
{"smiles": "COc1ccc2c(c1)c(CC(=O)O)c(C)n2C(=O)c1ccc(Cl)cc1", "note": "[Indomethacin]", "Toxicity (Ref.)": "Neutrophil toxicity (14)"}
{"smiles": "O=C1NC(=O)C(c2ccccc2)(c2ccccc2)N1", "note": "[Phenytoin]", "Toxicity (Ref.)": "Hepato- toxicity (18)"}
{"smiles": "CCCC(CCC)C(=O)O", "note": "[Valproic acid]", "Toxicity (Ref.)": "Hepato- toxicity (17)"}
{"smiles": "Cc1cccc(O)c1", "note": "[m-Cresol]", "Toxicity (Ref.)": "Circulatory collapse, death (16)"}
